Laboratory results published in article PMC8259857, “Anti-tubercular activity and molecular docking studies of indolizine derivatives targeting mycobacterial InhA enzyme” (Journal of Enzyme Inhibition and Medicinal Chemistry, 2021).
Converted amounts (≈) assume the structure as drawn.

tested on: MDR-MTB (rifampicin and isoniazid-resistant MTB strain); assay: microbe, parasite or virus in culture; type: cell-based, Mycobacterium tuberculosis; conditions: MIC MDR-MTB versus MIC H37Rv

Compound	fold reduced MDR-MTB activity compared to H37Rv MTB strain
CCOC(=O)c1cc(C(=O)c2ccc([N+](=O)[O-])cc2)n2ccccc12 [Compound 2d]	8 fold
CCOC(=O)c1c(C)c(C(=O)c2ccc(F)cc2)n2ccccc12 [Compound 3a]	8 fold

same assay, conditions: Mycobacterium tuberculosis, read-out: MIC MDR-MTB

Compound	MIC
CCOC(=O)c1cc(C(=O)c2ccc([N+](=O)[O-])cc2)n2ccccc12 [Compound 2d]	64 µg/mL (≈ 189 µM)
CCOC(=O)c1c(C)c(C(=O)c2ccc(F)cc2)n2ccccc12 [Compound 3a]	32 µg/mL (≈ 98.4 µM)
CCOC(=O)c1c(C(=O)OCC)c2ccccn2c1C(=O)c1ccc(F)cc1 [Compound 4a, Diethyl-3-(4-fluorobenzoyl)indolizine-1,2-dicarboxylate]	16 µg/mL (≈ 41.7 µM)
CCOC(=O)c1c(C(=O)OCC)c2ccccn2c1C(=O)c1ccc(Cl)cc1 [Compound 4b, Diethyl-3-(4-chlorobenzoyl)indolizine-1,2-dicarboxylate]	16 µg/mL (≈ 40 µM)
CCOC(=O)c1c(C(=O)OCC)c2ccccn2c1C(=O)c1ccc([N+](=O)[O-])cc1 [Compound 4c, Diethyl-3-(4-nitrobenzoyl)indolizine-1,2-dicarboxylate]	64 µg/mL (≈ 156 µM)
NNC(=O)c1ccncc1 [Isoniazid, reference compound]	≥ 0.2 µg/mL
CO[C@H]1/C=C/O[C@@]2(C)Oc3c(C)c(O)c4c(O)c(c(/C=N/N5CCN(C)CC5)c(O)c4c3C2=O)NC(=O)/C(C)=C\C=C\[C@H](C)[C@H](O)[C@@H](C)[C@@H](O)[C@@H](C)[C@H](OC(C)=O)[C@@H]1C [Rifampicin, reference compound]	≥ 1 µg/mL

same assay, conditions: isolates resistant to rifampicin (1 μg/mL) and isoniazid (0.2 μg/mL); NA: not active at the concentration range (0.2–64 μg/mL)

Compound	MIC MDR-MTB
CCOC(=O)c1cc(C(=O)c2ccc(C)cc2)n2ccccc12 [Compound 2e]	completely abolished the activity
CCOC(=O)c1cc(C(=O)c2ccc(C#N)cc2)n2ccccc12 [Compound 2f]	completely abolished the activity
CCOC(=O)c1c(C)c(C(=O)c2ccc(Cl)cc2)n2ccccc12 [Compound 3b]	inactive
CCOC(=O)c1c(C)c(C(=O)c2ccc([N+](=O)[O-])cc2)n2ccccc12 [Compound 3d]	inactive
